Here are results for seven compounds from patent publication US20130209522A1, “Drug Release from a Polymer-Controlled Local Antibiotic Delivery System Using a Degradable Bone Graft” (UNIVERSITY OF UTAH RESEARCH FOUNDATION, priority 2012, published 2013).

Data set [1] has as its system Staphylococcus aureus (ATCC 25923). Put plainly: Zone of inhibition of antibiotic release samples. It is filed as cell-based. Particulars: released from PCL-coated allograft bone. As for the experimental part:
Zone of Inhibition. Immediately following the kinetics assay, filter paper disks (diameter=6 mm) were placed in the antibiotic release samples in the 96-well plate and dried overnight. Staphylococcus aureus (ATCC 25923 from American Type Culture Collection, Manassas, Va., USA) streaked Brain-Heart Infusion (BHI, BD cat#237500) agar plates were prepared for zone of inhibition experiments using pooled isolated colonies from blood agar plates diluted to a standard concentration (0.5 McFarland units). Subsequently, each drug-containing disk was placed on the bacterial-streaked agar […]. Plates were incubated for 18 hours at 37° C. Electronic calipers were used to measure the cleared (no bacterial growth) diameter surrounding each disk (zone of inhibition). If no measurable zone was present the diameter was recorded as zero.

For data set [2] the following is noted: cited from earlier work; for Solubility in organic solvents / Water solubility / pH induced in the surrounding: Table 3, for reference; for Solubility in organic solvents: cell wraps over several lines, first line given; for Solubility: ranking of solvents, Table 2.
A short description of data set [3]: Tobramycin thermostability during PCL formulation (bioactivity). The following applies: after inclusion in a PCL formulation; data not shown. It is filed as physicochemical.

Structures can show the parent of a compound that is named as a salt. Where two headings read alike, the source gives them in different places.

As to `O=C(O)c1cn(C2CC2)c2cc(N3CCNCC3)c(F)cc2c1=O` [Ciprofloxacin], in data set [1], the “zones of inhibition compared to the antibiotic salts (vancomycin and oxacillin)” value was “enhanced zones of inhibition”.
As for `CN[C@H](CC(C)C)C(=O)N[C@H]1C(=O)N[C@@H](CC(N)=O)C(=O)N[C@H]2C(=O)N[C@H]3C(=O)N[C@H](C(=O)N[C@H](C(=O)O)c4cc(O)cc(O)c4-c4cc3ccc4O)[C@H](O)c3ccc(c(Cl)c3)Oc3cc2cc(c3O[C@@H]2O[C@H](CO)[C@@H](O)[C@H](O)[C@H]2O[C@H]2C[C@](C)(N)[C@H](O)[C@H](C)O2)Oc2ccc(cc2Cl)[C@H]1O` [Vancomycin], the “Solubility in organic solvents” value in data set [2] was “DMSO”.
`Cc1onc(-c2ccccc2)c1C(=O)N[C@@H]1C(=O)N2[C@@H]1SC(C)(C)[C@@H]2C(=O)O` [Oxacillin]: in data set [2], the “Solubility in organic solvents” value was “High: MeOH,”, the Water solubility result is listed as “(13.9 mg/ml” and the “pH induced in the surrounding” value was “High”.
Regarding Tobramycin Sulfate, in data set [2], the Solubility entry is reported as “water >>> acetone >> ethanol”.
As to `CO[C@H]1/C=C/O[C@@]2(C)Oc3c(C)c(O)c4c(O)c(c(/C=N/N5CCN(C)CC5)c(O)c4c3C2=O)NC(=O)/C(C)=C\C=C\[C@H](C)[C@H](O)[C@@H](C)[C@@H](O)[C@@H](C)[C@H](OC(C)=O)[C@@H]1C` [Rifampin], in data set [2], the “Solubility in organic solvents” value was “DMSO, CHCl3,”. Moreover, the “zones of inhibition compared to the antibiotic salts (vancomycin and oxacillin)” value in data set [1] was “enhanced zones of inhibition”.
For `NC[C@H]1O[C@H](O[C@H]2[C@H](O)[C@@H](O[C@H]3O[C@H](CO)[C@@H](O)[C@H](N)[C@H]3O)[C@H](N)C[C@@H]2N)[C@H](N)C[C@@H]1O` [Tobramycin], the thermostability during formulation result in data set [3] was “no loss in bioactivity”. Also, in data set [2], the “Solubility in organic solvents” value is reported as “EtOH”, the Water solubility entry is “(538 mg/ml” and the “pH induced in the surrounding” value is reported as “Low”. In data set [2] (in words), the solubility in alcohols result is recorded as “marginally soluble” and the solubility in water entry is on record as “very water-soluble”. Besides, the solubility in water entry in data set [2] (in words, listed as tobramycin) is given as “highly soluble”.
As for `CN[C@H](CC(C)C)C(=O)N[C@H]1C(=O)N[C@@H](CC(N)=O)C(=O)N[C@H]2C(=O)N[C@H]3C(=O)N[C@H](C(=O)N[C@H](C(=O)O)c4cc(O)cc(O)c4-c4cc3ccc4O)[C@H](O)c3ccc(c(Cl)c3)Oc3cc2cc(c3O[C@@H]2O[C@H](CO)[C@@H](O)[C@H](O)[C@H]2O[C@H]2C[C@](C)(N)[C@H](O)[C@H](C)O2)Oc2ccc(cc2Cl)[C@H]1O` [Vancomycin HCL], the Solubility result in data set [2] is “water >>> chloroform & ethanol”.
